Measured values reported in ChEMBL document CHEMBL1155531, “Structure guided design of 5-arylindazole glucocorticoid receptor agonists and antagonists” (J Med Chem, 2010).

Tests used:
Glucocorticoid receptor [1] = target: T1, Glucocorticoid receptor (Homo sapiens, UniProt P04150); test: Displacement of fluorescent-labeled Dexamethasone from GR by fluorescent polarization assay
T1 sequence (P04150 whole entry): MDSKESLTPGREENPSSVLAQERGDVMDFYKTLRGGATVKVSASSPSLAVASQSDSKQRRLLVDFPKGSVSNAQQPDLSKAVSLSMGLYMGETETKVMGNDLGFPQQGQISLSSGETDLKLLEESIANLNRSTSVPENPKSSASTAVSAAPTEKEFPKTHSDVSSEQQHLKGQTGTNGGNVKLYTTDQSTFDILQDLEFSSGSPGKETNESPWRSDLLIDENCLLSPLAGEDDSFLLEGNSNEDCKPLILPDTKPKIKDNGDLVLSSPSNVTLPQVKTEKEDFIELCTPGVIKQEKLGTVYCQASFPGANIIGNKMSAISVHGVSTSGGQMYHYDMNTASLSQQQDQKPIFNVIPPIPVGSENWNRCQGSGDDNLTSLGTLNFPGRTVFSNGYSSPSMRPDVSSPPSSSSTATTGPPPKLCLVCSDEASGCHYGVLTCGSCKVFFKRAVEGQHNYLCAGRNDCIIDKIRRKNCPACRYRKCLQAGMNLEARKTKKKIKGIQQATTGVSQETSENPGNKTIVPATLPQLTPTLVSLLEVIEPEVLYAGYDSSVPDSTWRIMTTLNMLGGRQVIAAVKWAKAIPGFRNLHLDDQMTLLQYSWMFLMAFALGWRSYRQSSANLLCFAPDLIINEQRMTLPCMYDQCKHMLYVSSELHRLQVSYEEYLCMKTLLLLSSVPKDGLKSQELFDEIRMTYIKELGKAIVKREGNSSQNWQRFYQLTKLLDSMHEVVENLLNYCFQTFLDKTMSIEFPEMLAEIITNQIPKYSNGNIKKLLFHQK

Glucocorticoid receptor [2] = target: T1, Glucocorticoid receptor; test: Activity at GR in human A549 cells by NF-kappaB transrepression assay; assay type: cell-based
Androgen receptor = target: T2, Androgen receptor (Homo sapiens, UniProt P10275)
T2 sequence (P10275 whole entry): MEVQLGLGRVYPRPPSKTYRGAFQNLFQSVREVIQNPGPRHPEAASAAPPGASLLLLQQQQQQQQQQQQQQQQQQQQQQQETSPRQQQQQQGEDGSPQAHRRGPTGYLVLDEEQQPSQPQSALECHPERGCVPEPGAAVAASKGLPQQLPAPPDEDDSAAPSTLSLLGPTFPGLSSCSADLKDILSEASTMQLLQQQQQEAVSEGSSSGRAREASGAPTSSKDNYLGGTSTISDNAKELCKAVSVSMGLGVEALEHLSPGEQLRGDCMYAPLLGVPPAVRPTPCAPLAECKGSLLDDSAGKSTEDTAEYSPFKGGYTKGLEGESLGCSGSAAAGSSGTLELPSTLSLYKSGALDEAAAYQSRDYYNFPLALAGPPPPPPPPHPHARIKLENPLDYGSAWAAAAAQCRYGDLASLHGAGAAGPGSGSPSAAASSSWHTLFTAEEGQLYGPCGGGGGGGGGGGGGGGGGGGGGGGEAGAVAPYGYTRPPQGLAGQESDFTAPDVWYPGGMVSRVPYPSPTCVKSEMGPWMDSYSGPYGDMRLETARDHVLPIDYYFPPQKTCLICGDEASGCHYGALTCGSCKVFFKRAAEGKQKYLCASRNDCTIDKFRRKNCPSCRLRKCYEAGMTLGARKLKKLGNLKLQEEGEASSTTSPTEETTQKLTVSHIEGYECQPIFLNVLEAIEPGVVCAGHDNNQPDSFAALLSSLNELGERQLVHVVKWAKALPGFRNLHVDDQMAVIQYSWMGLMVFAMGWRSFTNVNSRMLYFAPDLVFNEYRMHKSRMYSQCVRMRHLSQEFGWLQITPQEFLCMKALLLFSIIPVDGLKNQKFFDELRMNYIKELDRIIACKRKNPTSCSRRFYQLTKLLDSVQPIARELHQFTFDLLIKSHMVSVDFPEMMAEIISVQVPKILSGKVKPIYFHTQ

Progesterone receptor = target: T3, Progesterone receptor (Homo sapiens, UniProt P06401); test: Binding affinity to PR
T3 sequence (P06401 whole entry): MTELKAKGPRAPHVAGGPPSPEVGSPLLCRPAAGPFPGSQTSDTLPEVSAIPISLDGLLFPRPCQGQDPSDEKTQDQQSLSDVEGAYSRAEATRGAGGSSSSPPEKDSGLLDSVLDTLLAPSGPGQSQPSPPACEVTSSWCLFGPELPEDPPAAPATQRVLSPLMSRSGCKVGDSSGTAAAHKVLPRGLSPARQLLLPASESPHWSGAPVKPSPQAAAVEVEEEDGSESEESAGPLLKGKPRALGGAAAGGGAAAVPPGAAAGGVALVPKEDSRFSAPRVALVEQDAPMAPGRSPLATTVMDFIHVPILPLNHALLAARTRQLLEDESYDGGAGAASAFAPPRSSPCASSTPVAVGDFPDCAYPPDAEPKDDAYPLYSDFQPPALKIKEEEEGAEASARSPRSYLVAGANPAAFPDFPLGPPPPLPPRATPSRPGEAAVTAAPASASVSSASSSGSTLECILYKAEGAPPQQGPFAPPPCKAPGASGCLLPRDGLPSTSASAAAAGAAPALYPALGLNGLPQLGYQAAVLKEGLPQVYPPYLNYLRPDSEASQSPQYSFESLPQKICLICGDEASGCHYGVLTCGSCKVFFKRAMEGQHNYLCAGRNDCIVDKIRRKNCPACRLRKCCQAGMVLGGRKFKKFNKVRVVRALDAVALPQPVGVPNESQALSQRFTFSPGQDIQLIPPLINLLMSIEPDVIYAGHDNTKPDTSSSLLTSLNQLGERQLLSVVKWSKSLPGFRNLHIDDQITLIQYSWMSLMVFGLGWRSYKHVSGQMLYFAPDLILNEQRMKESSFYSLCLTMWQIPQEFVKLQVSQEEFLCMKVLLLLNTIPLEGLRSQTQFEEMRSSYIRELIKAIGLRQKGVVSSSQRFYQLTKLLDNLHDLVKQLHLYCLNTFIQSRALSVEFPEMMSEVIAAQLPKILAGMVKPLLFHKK

Glucocorticoid receptor [3] = target: T1, Glucocorticoid receptor; test: Agonist activity at GR in human A549 cells transfected with luciferase gene linked to MMTV promoter assessed as luciferase transactivation activity after 24 hrs; assay type: functional, cell-based
Glucocorticoid receptor [4] = target: T1, Glucocorticoid receptor; test: Antagonist activity at GR in human A549 cells transfected with luciferase gene linked to MMTV promoter assessed as inhibition of dexamethasone-induced luciferase transactivation activity after 24 hrs; assay type: functional, cell-based

SMILES	IC50 (Glucocorticoid receptor [1]) [nM]	IC50 (Glucocorticoid receptor [2]) [nM]	IC50 (Androgen receptor) [nM]	IC50 (Progesterone receptor) [nM]	EC50 (Glucocorticoid receptor [3]) [nM]	IC50 (Glucocorticoid receptor [4]) [nM]
CCCCN(c1ccccc1)S(=O)(=O)c1ccc(-c2ccc3c(cnn3-c3ccc(F)cc3)c2)c(C(F)(F)F)c1	25.1	> 10000	> 10000	> 10000	> 10000	–
O=S(=O)(Nc1ccc(-c2ccc3c(cnn3-c3ccc(F)cc3)c2)c(C(F)(F)F)c1)c1ccsc1	12.6	100	2510	> 10000	251	–
CC(C)S(=O)(=O)Nc1ccc(-c2ccc3c(cnn3-c3ccc(F)cc3)c2)c(C(F)(F)F)c1	12.6	50.1	> 10000	> 10000	158	–
O=S(=O)(Nc1ccc(-c2ccc3c(cnn3-c3ccc(F)cc3)c2)c(C(F)(F)F)c1)c1cccc(C(F)(F)F)c1	50.1	63.1	3980	> 10000	200	–
CC(C)NS(=O)(=O)c1ccc(-c2ccc3c(cnn3-c3ccc(F)cc3)c2)c(C(F)(F)F)c1	12.6	> 10000	> 10000	3160	–	1260
CCCN(c1ccccc1)S(=O)(=O)c1ccc(-c2ccc3c(cnn3-c3ccc(F)cc3)c2)c(C(F)(F)F)c1	15.8	316	> 10000	> 10000	316	–
CC(C)N(c1ccccc1)S(=O)(=O)c1ccc(-c2ccc3c(cnn3-c3ccc(F)cc3)c2)c(C(F)(F)F)c1	15.8	50.1	> 10000	> 2510	126	–
CCS(=O)(=O)Nc1ccc(-c2ccc3c(cnn3-c3ccc(F)cc3)c2)c(C(F)(F)F)c1	10	> 10000	5010	> 10000	–	2000
CN(c1ccccc1)S(=O)(=O)c1ccc(-c2ccc3c(cnn3-c3ccc(F)cc3)c2)c(C(F)(F)F)c1	12.6	398	> 10000	794	631	–
CC(C)c1cc(C(C)C)c(S(=O)(=O)Nc2ccc(-c3ccc4c(cnn4-c4ccc(F)cc4)c3)c(C(F)(F)F)c2)c(C(C)C)c1	251	> 10000	> 10000	> 10000	–	> 10000

Second part, the molecule after the results:

IC50 (Glucocorticoid receptor [1]) [nM]	IC50 (Glucocorticoid receptor [2]) [nM]	IC50 (Androgen receptor) [nM]	IC50 (Progesterone receptor) [nM]	EC50 (Glucocorticoid receptor [3]) [nM]	IC50 (Glucocorticoid receptor [4]) [nM]	SMILES
15.8	126	> 10000	> 10000	200	–	CCN(c1ccccc1)S(=O)(=O)c1ccc(-c2ccc3c(cnn3-c3ccc(F)cc3)c2)c(C(F)(F)F)c1
15.8	> 10000	6310	> 10000	–	1580	O=S(=O)(Nc1ccc(-c2ccc3c(cnn3-c3ccc(F)cc3)c2)c(C(F)(F)F)c1)c1ccccc1
15.8	79.4	3160	> 10000	251	–	COc1cccc(S(=O)(=O)Nc2ccc(-c3ccc4c(cnn4-c4ccc(F)cc4)c3)c(C(F)(F)F)c2)c1
39.8	79.4	> 10000	> 10000	251	–	O=S(=O)(Nc1ccc(-c2ccc3c(cnn3-c3ccc(F)cc3)c2)c(C(F)(F)F)c1)c1cccc(OC(F)(F)F)c1
